Experimental findings from patent US7632794B1, “Lens care solutions comprising alkyldimonium hydroxypropyl alkylglucosides” (Bausch & Lomb Incorporated, priority 2008, dated 2009) are described below.

This assay relates to five microorganisms tested (three bacterium and two fungal strains). Nature of the assay: Biocidal efficacy across the microorganisms tested. It is filed as cell-based. As to conditions: aqueous buffered borate solution. An excerpt: Accordingly, a composition containing as little as 75 ppm of S-1218 and 50 ppm of L-1010P is shown to have very strong biocidal activity against all five microorganisms.

For “stearyl dimoniumhydropropyl laurylglucoside”, the “biocidal efficacy (in words)” value was “relatively high increase in biocidal efficacy”.

As for “stearyl dimoniumhydropropyl decylglucoside”, the “biocidal efficacy (in words)” value is “relatively high increase in biocidal efficacy”.
